{"source": "patent US7135466B2", "about": "(Kirin Beer Kabushiki Kaisha, priority 1999, dated 2006)"}
{"molecular_target": "T1, c-kit (Homo sapiens, UniProt P10721)", "T1 construct": "MO7e (human megakaryocytic leukemia cell line) which had been arrested for 20 hr; endogenous in cells; host or cells: MO7e human megakaryocytic leukemia cell line", "T1 sequence (P10721 26-976)": "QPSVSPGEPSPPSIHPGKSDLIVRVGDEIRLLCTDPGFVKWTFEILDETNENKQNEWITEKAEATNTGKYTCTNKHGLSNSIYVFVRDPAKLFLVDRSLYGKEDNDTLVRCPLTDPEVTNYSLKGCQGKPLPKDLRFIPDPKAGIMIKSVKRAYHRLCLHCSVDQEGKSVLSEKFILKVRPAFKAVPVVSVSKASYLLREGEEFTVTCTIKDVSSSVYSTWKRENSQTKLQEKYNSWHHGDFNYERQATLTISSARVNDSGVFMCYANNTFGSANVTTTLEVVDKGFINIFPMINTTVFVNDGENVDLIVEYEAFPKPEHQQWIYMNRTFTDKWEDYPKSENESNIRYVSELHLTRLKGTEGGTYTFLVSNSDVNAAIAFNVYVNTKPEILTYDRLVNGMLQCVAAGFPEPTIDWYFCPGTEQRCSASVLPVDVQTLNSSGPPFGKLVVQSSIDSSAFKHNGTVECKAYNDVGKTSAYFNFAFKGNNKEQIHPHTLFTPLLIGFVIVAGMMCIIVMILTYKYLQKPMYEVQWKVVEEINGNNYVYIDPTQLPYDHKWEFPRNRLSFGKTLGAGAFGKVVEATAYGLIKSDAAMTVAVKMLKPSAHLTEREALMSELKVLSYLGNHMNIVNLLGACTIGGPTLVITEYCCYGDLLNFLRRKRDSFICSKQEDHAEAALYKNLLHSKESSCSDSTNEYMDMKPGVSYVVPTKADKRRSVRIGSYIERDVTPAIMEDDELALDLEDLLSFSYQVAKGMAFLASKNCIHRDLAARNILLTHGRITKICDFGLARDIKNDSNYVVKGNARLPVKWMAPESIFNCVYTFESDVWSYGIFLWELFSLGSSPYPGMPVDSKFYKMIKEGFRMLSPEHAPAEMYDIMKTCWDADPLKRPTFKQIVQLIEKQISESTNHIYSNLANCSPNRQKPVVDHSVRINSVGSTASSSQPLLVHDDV", "experiment": "Inhibitory activity against c-kit autophosphorylation (MO7e cells, h-SCF)", "format": "cell-based", "settings": "MO7e cells, 50 ng/ml h-SCF; read-out: c-kit IC50", "summary_of_the_method": "(§1)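 Growth-arrested (20 hr) MO7e; cpd in DMSO, 1 hr; h-SCF 50 ng/ml, 5 min; lyse. ELISA: anti-pTyr (PY-20) capture, anti-c-kit 1° Ab, HRP anti-rabbit 2° Ab, A450.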", "units": {"IC50": "nM"}}
{"smiles": "COc1ccc(NCCOc2ccc(Oc3ccnc4cc(OC)c(OC)cc34)cc2)cc1", "note": "[Example 781, N-(2-{4-[(6,7-Dimethoxy-4-quinolyl)oxy]phenoxy}ethyl)-N-(4-methoxyphenyl)amine]", "IC50": 135}
{"smiles": "COc1cc2nccc(Oc3ccc(OCC(=O)Nc4ccc(Cl)cc4)cc3)c2cc1OC", "note": "[Example 789, N1-(4-Chlorophenyl)-2-{4-[(6,7-dimethoxy-4-quinolyl)oxy]phenoxy}acetamide]", "IC50": 154}
{"smiles": "COc1cc2nccc(Oc3ccc(OCCNc4ccc(C)cc4)cc3)c2cc1OC", "note": "[Example 787, N-(2-{4-[(6,7-Dimethoxy-4-quinolyl)oxy]phenoxy}ethyl)-N-(4-methylphenyl)amine]", "IC50": 37}
{"molecular_target": "T1, c-kit", "experiment": "Inhibitory activity against c-kit autophosphorylation (MO7e cells, h-SCF)", "format": "cell-based", "settings": "MO7e cells, h-SCF 50 ng/ml; read-out: c-kit IC50", "summary_of_the_method": "as §1", "units": {"IC50": "nM"}}
{"smiles": "COc1cc2nccc(Oc3cc(C)c(NC(=O)OCc4ccccc4)cc3C)c2cc1OC", "note": "[Example 218, Benzyl N-{4-[(6,7-dimethoxy-4-quinolyl)oxy]-2,5-dimethylphenyl}carbamate]", "IC50": 123}
{"smiles": "COc1cc2ncnc(Oc3ccc(NC(=O)OCc4ccccc4)c(Cl)c3)c2cc1OC", "note": "[Example 225, Benzyl N-{2-chloro-4-[(6,7-dimethoxy-4-quinazolinyl)oxy]phenyl}carbamate]", "IC50": 453}
{"smiles": "COc1cc2nccc(Oc3ccc(NC(=O)OCc4cccc(Cl)c4)cc3)c2cc1OC", "note": "[Example 228, 3-Chlorobenzyl N-{4-[(6,7-dimethoxy-4-quinolyl)oxy]phenyl}carbamate]", "IC50": 71}
{"smiles": "COc1cc2nccc(Oc3ccc(NC(=O)OCc4ccc(Cl)cc4)cc3)c2cc1OC", "note": "[Example 229, 4-Chlorobenzyl N-{4-[(6,7-dimethoxy-4-quinolyl)oxy]phenyl}carbamate]", "IC50": 47}
{"molecular_target": "T1, c-kit", "experiment": "Inhibitory activity against c-kit autophosphorylation (MO7e cells, h-SCF)", "format": "cell-based", "settings": "MO7e cells, h-SCF stimulation; read-out: c-kit IC50", "summary_of_the_method": "as §1", "units": {"IC50": "nM"}}
{"smiles": "COc1cc2nccc(Oc3ccc(NC(=S)NC(=O)c4ccccc4Br)cc3Cl)c2cc1OC", "note": "[Example 922, N-(2-Bromobenzoyl)-N′-{3-chloro-4-[(6,7-dimethoxy-4-quinolyl)oxy]phenyl}thiourea]", "IC50": 365}
{"smiles": "CCc1ccc(OCCNc2ccc(Oc3ccnc4cc(OC)c(OC)cc34)cc2)cc1", "note": "[Example 864, N-{4-[(6,7-Dimethoxy-4-quinolyl)oxy]phenyl}-N-[2-(4-ethylphenoxy)ethyl]amine]", "IC50": 32}
{"smiles": "COc1cc2ncnc(Oc3ccc(NC(=S)NC(=O)c4cccc(Br)c4)cc3)c2cc1OC", "note": "[Example 958, N-(3-Bromobenzoyl)-N′-{4-[(6,7-dimethoxy-4-quinazolinyl)oxy]phenyl}thiourea]", "IC50": 194}
{"smiles": "COc1cc2nccc(Oc3ccc(SCCOc4ccc(Cl)cc4)cc3)c2cc1OC", "note": "[Example 818, 4-(4-{[2-(4-Chlorophenoxy)ethyl]sulfanyl}phenoxy)-6,7-dimethoxyquinoline]", "IC50": 205}
{"smiles": "COc1ccc(C(=O)NC(=S)Nc2ccc(Oc3ccnc4cc(OC)c(OC)cc34)c(F)c2)cc1OC", "note": "[Example 1070, N-(3,4-Dimethoxybenzoyl)-N′-{4-[(6,7-dimethoxy-4-quinolyl)oxy]-3-fluorophenyl}thiourea]", "IC50": 391}
{"smiles": "COc1ccc(C(=O)NC(=S)Nc2ccc(Oc3ccnc4cc(OC)c(OC)cc34)c(F)c2)cc1", "note": "[Example 976, N-{4-[(6,7-Dimethoxy-4-quinolyl)oxy]-3-fluorophenyl}-N′-(4-methoxybenzoyl)thiourea]", "IC50": 788}
{"smiles": "COc1cc2nccc(Oc3ccc(NC(=S)NC(=O)C4CCCC4)cc3)c2cc1OC", "note": "[Example 1061, N-Cyclopentylcarbonyl-N′-{4-[(6,7-dimethoxy-4-quinolyl)oxy]phenyl}thiourea]", "IC50": 136}
{"smiles": "COc1cc2nccc(Oc3ccc(NCCOc4c(C)cccc4C)cc3)c2cc1OC", "note": "[Example 855, N-{4-[(6,7-Dimethoxy-4-quinolyl)oxy]phenyl}-N-[2-(2,6-dimethylphenoxy)ethyl]amine]", "IC50": 399}
{"smiles": "COc1cc2nccc(Oc3ccc(NCCOc4cccc(C)c4)cc3)c2cc1OC", "note": "[Example 871, N-{4-[(6,7-Dimethoxy-4-quinolyl)oxy]phenyl}-N-[2-(3-methylphenoxy)ethyl]amine]", "IC50": 43}
{"smiles": "COc1cc2nccc(Oc3ccc(NCCOc4cccc(Cl)c4)cc3)c2cc1OC", "note": "[Example 860, N-[2-(3-Chlorophenoxy)ethyl]-N-{4-[(6,7-dimethoxy-4-quinolyl)oxy]phenyl}amine]", "IC50": 75}
{"smiles": "COc1cccc(C(=O)NC(=S)Nc2ccc(Oc3ccnc4cc(OC)c(OC)cc34)c(F)c2)c1", "note": "[Example 944, N-{4-[(6,7-Dimethoxy-4-quinolyl)oxy]3-fluorophenyl}-N′-(3-methoxybenzoyl)thiourea]", "IC50": 140}
{"smiles": "CCOc1ccc(C(=O)NC(=S)Nc2ccc(Oc3ccnc4cc(OC)c(OC)cc34)c(F)c2)cc1", "note": "[Example 990, N-{4-[(6,7-Dimethoxy-4-quinolyl)oxy]-3-fluorophenyl}-N′-(4-ethoxybenzoyl)thiourea]", "IC50": 481}
{"smiles": "COc1cc2nccc(Oc3ccc(NC(=S)NC(=O)c4cccc(Cl)c4)c(F)c3)c2cc1OC", "note": "[Example 938, N-(3-Chlorobenzoyl)-N′-{4-[(6,7-dimethoxy-4-quinolyl)oxy]-2-fluorophenyl}thiourea]", "IC50": 532}
{"smiles": "COc1cc2nccc(Oc3ccc(SCCOc4ccc(C(C)C)cc4)cc3)c2cc1OC", "note": "[Example 816, 4-(4-{[2-(4-Isopropylphenoxy)ethyl]sulfanyl}phenoxy)-6,7-dimethoxyquinoline]", "IC50": 123}
{"smiles": "CCc1ccccc1OCCNc1ccc(Oc2ccnc3cc(OC)c(OC)cc23)cc1", "note": "[Example 861, N-{4-[(6,7-Dimethoxy-4-quinolyl)oxy]phenyl}-N-[2-(2-ethylphenoxy)ethyl]amine]", "IC50": 132}
{"smiles": "COc1cc2nccc(Oc3ccc(SCCOc4ccc(C)cc4)cc3)c2cc1OC", "note": "[Example 814, 6,7-Dimethoxy-4-(4-{[2-(4-methylphenoxy)ethyl]sulfanyl}phenoxy)quinoline]", "IC50": 405}
{"smiles": "COc1cc2nccc(Oc3ccc(NC(=S)NC(=O)c4cc(Cl)cc(Cl)c4)cc3Cl)c2cc1OC", "note": "[Example 1116, N-{3-Chloro-4-[(6,7-dimethoxy-4-quinolyl)oxy]phenyl}-N′-(3,5-dichlorobenzoyl)thiourea]", "IC50": 878}
{"smiles": "COc1cc2ncnc(Oc3ccc(NC(=S)NC(=O)c4ccccc4Cl)cc3)c2cc1OC", "note": "[Example 928, N-(2-Chlorobenzoyl)-N′-{4-[(6,7-dimethoxy-4-quinazolinyl)oxy]phenyl}thiourea]", "IC50": 289}
{"smiles": "COc1cc2nccc(Oc3ccc(NC(=S)NC(=O)c4cc(C)oc4C)cc3F)c2cc1OC", "note": "[Example 1039, N-{4-[(6,7-Dimethoxy-4-quinolyl)oxy]-3-fluorophenyl}-N′-[(2,5-dimethyl-3-furyl)carbonyl]thiourea]", "IC50": 556}
{"smiles": "COc1cc2nccc(Oc3ccc(NC(=S)NC(=O)c4ccccc4Cl)cc3F)c2cc1OC", "note": "[Example 913, N-(2-Chlorobenzoyl)-N′-{4-[(6,7-dimethoxy-4-quinolyl)oxy]-3-fluorophenyl}thiourea]", "IC50": 563}
{"smiles": "COc1cc2nccc(Oc3ccc(NCCOc4ccccc4C)cc3C)c2cc1OC", "note": "[Example 876, N-{4-[(6,7-Dimethoxy-4-quinolyl)oxy]-3-methylphenyl}-N-[2-(2-methylphenoxy)ethyl]amine]", "IC50": 242}
{"smiles": "COc1cc2ncnc(Oc3ccc(NC(=S)NC(=O)c4cccc(C)c4)cc3)c2cc1OC", "note": "[Example 954, N-{4-[(6,7-Dimethoxy-4-quinazolinyl)-oxy]phenyl}-N′-(3-methylbenzoyl)thiourea]", "IC50": 131}
{"smiles": "COc1cc2nccc(Oc3ccc(NC(=S)NC(=O)c4cccc(C)c4)c(F)c3)c2cc1OC", "note": "[Example 936, N-{4-[(6,7-Dimethoxy-4-quinolyl)oxy]-2-fluorophenyl}-N′-(3-methylbenzoyl)thiourea]", "IC50": 427}
{"smiles": "COc1cc2nccc(Oc3ccc(NCCOc4ccccc4O)cc3)c2cc1OC", "note": "[Example 872, 2-(2-{4-[(6,7-Dimethoxy-4-quinolyl)oxy]anilino}ethoxy)phenol]", "IC50": 32}
{"molecular_target": "T1, c-kit", "experiment": "Inhibitory activity against c-kit autophosphorylation (MO7e cells, h-SCF)", "format": "cell-based", "settings": "Mo7e, figure in parentheses in −( ); at 1000 nM", "summary_of_the_method": "as §1", "units": {"inhibition at 1 µM": "%"}}
{"smiles": "COc1cc2nccc(Oc3ccc(NC(=S)NC(=O)c4ccc(F)cc4)cc3Cl)c2cc1OC", "note": "[Example 979, N-{3-Chloro-4-[(6,7-dimethoxy-4-quinolyl)oxy]phenyl}-N′-(4-fluorobenzoyl)thiourea]", "inhibition at 1 µM": 25}
{"smiles": "COc1cc2nccc(Oc3ccc(NC(=S)NC(=O)c4ccc([N+](=O)[O-])cc4)cc3Cl)c2cc1OC", "note": "[Example 982, N-{3-Chloro-4-[(6,7-dimethoxy-4-quinolyl)oxy]phenyl}-N′-(4-nitrobenzoyl)thiourea]", "inhibition at 1 µM": 18}
{"smiles": "COc1cc2nccc(Oc3ccc(NC(=S)NC(=O)c4ccccc4C)c(F)c3)c2cc1OC", "note": "[Example 904, N-{4-[(6,7-Dimethoxy-4-quinolyl)oxy]-2-fluorophenyl}-N′-(2-methylbenzoyl)thiourea]", "inhibition at 1 µM": 46}
{"smiles": "COc1cc2nccc(Oc3ccc(NC(=S)NC(=O)c4cccc(C)c4)c([N+](=O)[O-])c3)c2cc1OC", "note": "[Example 953, N-{4-[(6,7-Dimethoxy-4-quinolyl)oxy]-2-nitrophenyl}-N′-(3-methylbenzoyl)thiourea]", "inhibition at 1 µM": 32}
{"smiles": "COc1cc2nccc(Oc3ccc(NC(=S)NC(=O)c4ccc(C)cc4)c(F)c3)c2cc1OC", "note": "[Example 964, N-{4-[(6,7-Dimethoxy-4-quinolyl)oxy]-2-fluorophenyl}-N′-(4-methylbenzoyl)thiourea]", "inhibition at 1 µM": 46}
{"smiles": "COc1cc2nccc(Oc3ccc(S(=O)(=O)CCOc4ccc(C)c(C)c4)cc3)c2cc1OC", "note": "[Example 833, 4-[(6,7-Dimethoxy-4-quinolyl)oxy]phenyl [2-(3,4-dimethylphenoxy)ethyl]sulfone]", "inhibition at 1 µM": 26}
{"smiles": "COc1ccc(C(=O)NC(=S)Nc2ccc(Oc3ccnc4cc(OC)c(OC)cc34)c(Cl)c2)cc1", "note": "[Example 983, N-{3-Chloro-4-[(6,7-dimethoxy-4-quinolyl)oxy]phenyl}-N′-(4-methoxybenzoyl)thiourea]", "inhibition at 1 µM": 39}
{"smiles": "COc1cc2nccc(Oc3ccc(NC(=S)NC(=O)c4c(F)cccc4F)cc3Cl)c2cc1OC", "note": "[Example 1020, N-{3-Chloro-4-[(6,7-dimethoxy-4-quinolyl)oxy]phenyl}-N′-(2,6-difluorobenzoyl)thiourea]", "inhibition at 1 µM": 11}
